Values quoted from earlier work, collected in PMC10817174, “Integrated drug response prediction models pinpoint repurposed drugs with effectiveness against rhabdomyosarcoma” (PLOS ONE, 2024).

Assays:
[1] = test system: GDSC-RD cell line; conditions: Table S2, published drug response ref Iorio et al. (2016); cited from earlier work
[2] = test system: GDSC-SJCRH30 cell line; conditions: Table S2, published drug response ref Iorio et al. (2016); cited from earlier work

SMILES | Iorio_RD [1] | Iorio_SJCRH30 [2]
CC1=C(C(=O)Nc2cc3cn[nH]c3cc2F)C(c2ccc(C(F)(F)F)cc2)CC(=O)N1 (centres unmarked) [GSK429286A] | R | R
CCn1c(-c2nonc2N)nc2c(C#CC(C)(C)O)ncc(OC[C@H]3CCCNC3)c21 [GSK690693] | R | S
COc1ncc(-c2ccc3nccc(-c4ccnnc4)c3c2)cc1NS(=O)(=O)c1ccc(F)cc1F [GSK2126458] | R | R
O=C(O)c1ccc(-c2c[nH]c3ncc(-c4ccccc4)cc23)cc1C1CCCC1 [GSK-650394] | R | R
CCc1cc(Nc2nccc(-c3c(-c4ccc(OC)c(C(=O)Nc5c(F)cccc5F)c4)nc4ccccn34)n2)c(OC)cc1N1CCC(N2CCN(S(C)(=O)=O)CC2)CC1 [GSK-1904529A] | R | R
COc1ccc(COc2ccc(Cc3cnc(N)nc3N)cc2OC)cc1 [GW-2580] | R | R
Nc1ccn([C@@H]2O[C@H](CO)[C@@H](O)C2(F)F)c(=O)n1 [Gemcitabine] | R | R
CCN1CCN(Cc2ccc(NC(=O)c3ccc(C)c(/C=C/c4cnc5[nH]ccc5c4OC)c3)cc2C(F)(F)F)CC1 [HG-6-64-1] | R | R
O=C(O)CNC(=O)c1c(O)c2ccccc2n(Cc2ccccc2)c1=O [IOX2] | R | R
Oc1ccc2ccccc2c1SSc1c(O)ccc2ccccc12 [IPA-3] | R | R
c1ccc2c(CCNc3ccc(Nc4ccncc4)cc3)c[nH]c2c1 [JNJ-26854165] | R | R
COc1cc(OC)cc(-c2ccc3ncc4ccc(=O)n(-c5ccc(N6CCNCC6)c(C(F)(F)F)c5)c4c3c2)c1 [JW-7-24-1] | R | R
O=C(NC(COc1ccc2[nH]c(=O)[nH]c2c1)c1ccccc1)c1cccn(Cc2ccc(F)c(F)c2)c1=O (centres unmarked) [KIN001-244] | R | R
CCN1CCC(n2cc(CNc3cc(Cl)c4ncc(C#N)c(Nc5ccc(F)c(Cl)c5)c4c3)nn2)CC1 [KIN001-266] | R | R
O=C(/C=C/c1ccc(CN(CCO)CCc2c[nH]c3ccccc23)cc1)NO [LAQ824] | R | R
C/C(O)=C(\C#N)C(=O)Nc1cc(Br)ccc1Br [LFM-A13] | R | R
Cn1cc(C2=C(c3cn(C4CCN(Cc5ccccn5)CC4)c4ccccc34)C(=O)NC2=O)c2ccccc21 [LY317615] | R | R
NS(=O)(=O)OC[C@@H]1C[C@@H](n2ccc3c(N[C@H]4CCc5ccccc54)ncnc32)C[C@@H]1O [MLN4924] | R | R
S=C(NCc1ccc2c(c1)OCO2)N1CCN(c2ncnc3c2oc2ccccc23)CC1 [MP470] | R | R
COc1cc(N2CCC(O)CC2)ccc1Nc1cc(Nc2ccccc2S(=O)(=O)C(C)C)c2cc[nH]c2n1 [MPS-1-IN-1] | R | R
Cc1ccc(NC(=O)c2ccc(CN3CCN(C)CC3)cc2)cc1Nc1nc(-c2cccnc2)cs1 [Masitinib] | R | R
CO[C@@H]1[C@H](N(C)C(=O)c2ccccc2)C[C@H]2O[C@]1(C)n1c3ccccc3c3c4c(c5c6ccccc6n2c5c31)C(=O)NC4 [Midostaurin] | R | R
CO[C@@]12[C@H](COC(N)=O)C3=C(C(=O)C(C)=C(N)C3=O)N1C[C@@H]1N[C@@H]12 [Mitomycin-C] | R | R
CCN1CCN(Cc2ccc(NC(=O)c3ccc(C)c(Oc4ccnc5[nH]ccc45)c3)cc2C(F)(F)F)CC1 [NG-25] | R | R
O=S(=O)(O)c1ccc2cc(N=Nc3cc(S(=O)(=O)O)c4cccnc4c3O)ccc2c1 [NSC-87877] | R | R
Cc1ccc(C(=O)Nc2cccc(C(F)(F)F)c2)cc1Nc1nc(-c2cccnc2)nc2c1cnn2C [NVP-BHG712] | R | R
COc1cccc2cc(-c3nc([C@H]4CC[C@H](C(=O)O)CC4)n4ncnc(N)c34)[nH]c12 [OSI-027] | R | R
C[C@]1(O)C[C@@H](c2nc(-c3ccc4ccc(-c5ccccc5)nc4c3)c3c(N)nccn32)C1 [OSI-906] | S | S

SMILES | Iorio_RD [1] | Iorio_SJCRH30 [2]
O=C(Nc1ccc(OC(F)(F)F)cc1)c1sccc1NCc1ccnc2ccccc12 [OSI-930] | R | R
NCC(=O)Nc1ccc(-n2nc(C(F)(F)F)cc2-c2ccc3c(ccc4ccccc43)c2)cc1 [OSU-03012] | R | R
COC1=CC(c2cc3ccccc3[nH]2)=N/C1=C\c1[nH]c(C)cc1C [Obatoclax-Mesylate] | R | R
COc1cc(O)c2c(c1)/C=C/C[C@H](O)[C@H](O)C(=O)/C=C\C[C@H](C)OC2=O [Oxozeaenol] | S | R
C=CCc1cccc(/C=N/NC(=O)CN2CCN(Cc3ccccc3)CC2)c1O [PAC-1] | R | R
CN(c1ncccc1CNc1nc(Nc2ccc3c(c2)CC(=O)N3)ncc1C(F)(F)F)S(C)(=O)=O [PF-562271] | R | R
CCc1cncnc1N1CCN(Cc2nc3ccc(C(F)(F)F)cc3[nH]2)CC1 [PF-4708671] | R | R
COc1ccccc1S(=O)(=O)Nc1ccc2c(c1)CN(C)C(=O)N2 [PFI-1] | R | R
CC(C)CC(=O)Nc1[nH]nc2c1CN(C(=O)C1CCN(C)CC1)C2(C)C [PHA-793887] | R | R
Oc1cccc(-c2nc(N3CCOCC3)c3oc4ncccc4c3n2)c1 [PI-103] | R | R
CC(=O)Nc1nc(C)c(-c2ccc(Cl)c(S(=O)(=O)NCCO)c2)s1 [PIK-93] | R | R
Cc1ccc(Nc2nccc(N(C)c3ccc4c(C)n(C)nc4c3)n2)cc1S(N)(=O)=O [Pazopanib] | R | R
[H]/N=C(/N)N/C(=N/[H])NCCc1ccccc1 [Phenformin] | R | R
C=CC(=O)Nc1cc(-n2c(=O)ccc3cnc4ccc(-c5cn[nH]c5)cc4c32)ccc1C [QL-X-138] | R | R
C=CC(=O)Nc1cc(NC(=O)c2ccc(C)c(NC(=O)c3ccno3)c2)cc(C(F)(F)F)c1 [QL-XI-92] | S | S
OC[C@H](Cc1ccccc1)Nc1nc(Oc2ccc3c(c2)CCC3)nc2c1ncn2Cc1ccc(-c2ccccc2)cc1 [QS11] | R | R
N#CC[C@H](C1CCCC1)n1cc(-c2ncnc3[nH]ccc23)cn1 [Ruxolitinib] | R | R
Cc1cccc(-c2[nH]c(C(C)(C)C)nc2-c2ccc3nccnc3c2)n1 [SB52334] | R | R
Cc1cccc(-c2[nH]c(C(C)(C)C)nc2-c2ccc3c(c2)OCO3)n1 [SB-505124] | R | R
Cc1ccc(C(=O)N(CCCN)[C@@H](c2nc3cc(Cl)ccc3c(=O)n2Cc2ccccc2)C(C)C)cc1 [SB-715992] | R | R
CC(C)N(CCCNC(=O)Nc1ccc(C(C)(C)C)cc1)C[C@H]1O[C@@H](n2cc(Br)c3c(N)ncnc32)[C@H](O)[C@@H]1O [SGC0946] | R | R
CCc1c2c(nc3ccc(O)cc13)-c1cc3c(c(=O)n1C2)COC(=O)[C@]3(O)CC [SN-38] | R | R
CC1(C)CC(=O)c2c(C(F)(F)F)nn(-c3ccc(C(N)=O)c(N[C@H]4CC[C@H](O)CC4)c3)c2C1 [SNX-2112] | R | R
Cc1cccc(Nc2nc(-c3ccncc3)cs2)c1 [STF-62247] | R | R
CC(C)=CC[C@@H](O)C1=CC(=O)c2c(O)ccc(O)c2C1=O [Shikonin] | R | R
O=S(=O)(c1ccccc1)N(CC(F)(F)F)c1ccc(C(O)(C(F)(F)F)C(F)(F)F)cc1 [T0901317] | R | R
CCc1nc(-c2cccc(C)c2)c(-c2ccnc(NC(=O)c3ccccc3)c2)s1 [TAK-715] | R | R
